In paper PMC8131842, “Therapeutic Potential of Vasoactive Intestinal Peptide and its Derivative Stearyl-Norleucine-VIP in Inflammation-Induced Osteolysis” (Frontiers in Pharmacology, 2021):

Tests used:
[1] = tested on: TiP-induced osteolysis on mouse calvaria; test: TiP-induced osteolysis, mouse calvarial model (µCT); type: in vivo
rats [2] = test: Study 004–1 repeated dose toxicity in rats: a 13-weeks study; type: in vivo, rat
Method: (§1) Toxicology. We performed toxicology studies for SNV that consisted of acute subcutaneous, intravenous and oral toxicity in rats, acute dermal toxicity in rabbits, skin sensitization using adjuvant and patch test in guinea pigs, and single and repeated (for 13 weeks) dose toxicity studies in rats. The latter was a 90-days repeated dose toxicity study, consisting of SNV once a day at three different doses to the penis and vagina of male and female rats, respectively. The compound was tested for the treatment of erectile dysfunction. The active dose (7 µg SNV) was chosen as the lowest dose for the study. The highest dosage group in the repeated dose toxicity study received 3,500 µg ([Gozes et al., 1994]). For study 001 (parts 1 through 3), the 1× dose consisted of 0.5 mg SNV dissolved in 7.1 ml vehicle (3.55 ml 10% Sefsol [glycerin monocaprylate] + 3.55 ml isopropanol) and 100µl/animal were administered; the 1000X dose consisted of 91 mg SNV dissolved in 1.3 ml vehicle (0.65 ml 10% Sefsol +0.65 ml isopropanol) and 100µl/animal were administered. For studies 002 through 004, the indicated doses of SNV (Table 1) were dissolved in 0.25 ml 10% Sefsol +0.25 ml 40% isopropanol (vehicle). The methodology for each of the toxicology studies is detailed in Table 1.
The study named 004-1, was the most protracted and detailed toxicology study. We carried it out in rats as a repeated dose toxicity study on target external organs, the penis and the vagina. The structure of the study included a detailed pathological evaluation of all body organs.

rats [3] = test: Study 001–3 acute oral toxicity in rats; type: in vivo, rat
Method: as §1

[4] = tested on: M-CSF + RANKL treated pre-osteoclasts; test: Osteoclastogenesis assay, direct effect in the absence of inflammation (TRAP staining); type: cell-based, mouse; conditions: 10^-6 M, no inflammation, TRAP-positive multinucleated osteoclasts after 5 days, n=5, p<0.01
Method: Osteoclastogenesis assay. Preosteoclasts, prepared like the BMDMs, were plated in 96-well plates (7,000 cells per well, for TRAP staining, see below) or in 6-well plates (200,000 cells per well, for RNA) in standard medium supplemented with 20 ng/ml M-CSF and 50 ng/ml RANKL (R&D Systems, Minneapolis, MN, United States). After 48 h, the medium was replaced by the conditioned medium of BMDM, supplemented with RANKL and M-CSF. Where indicated, 10^−6 M SNV or VIP were added. […], cells were stained using a TRAP kit (Sigma-Aldrich, St. Louis, MO, United States), and multinucleated (>3 nuclei) TRAP-positive cells were defined as osteoclasts. Images were acquired at an original magnification of ×4 (Evos FLC, Life Technologies, MS, United States). The number of osteoclasts and the total osteoclast area were measured using ImageJ software (National Institutes of Health, Bethesda, MD, United States).
FIGURE 3 Direct effect of VIP and SNV on osteoclastogenesis. (A) VPAC1 and (B) VPAC2 expression in M-CSF treated bone marrow-derived macrophages (Day 0) and M-CSF + RANKL treated pre-osteoclasts (Day 2) using RT-qPCR. […] (C-E) Osteoclastogenesis in the presence of 10^-6M VIP, SNV or vehicle only (control) performed in 96-well plates; TRAP-positive multinucleated osteoclasts were evaluated after 5 days of differentiation. […]

[5] = daily topical for 13 weeks, all doses
[6] = oral, 7 µg/rat and 7 mg/rat groups

Stearyl–HSDAVFTDNYTRLRKQ-Nle-AVKKYLNSILN-NH2 [SNV, Stearyl-norleucine-VIP, lipophilic VIP derivative with N-terminal stearic acid and norleucine in place of methionine at position 17]
Calvaria thickness ([1]; 2 × 10^–8 mol SNV in fibrinogen-thrombin membrane with TiP, 5 weeks, µCT): no significant differences | Lowering of pit resorption volume (PRV) vs Ti ([1]; mouse, in vivo): 60% | Lowering of pit resorption volume as percentage of the total tissue volume (PRV/TV) vs Ti ([1]; mouse, in vivo): 60% | Clinical signs (penile edema, erythema and staining): relation to dose (rats [2]; daily topical for 13 weeks, 7 µg, 0.7 mg and 3.5 mg/rat): not dose-related | Mortality (rats [2]; daily topical for 13 weeks, 7 µg/rat (low dose)): None. Only one death took place in a male from the low dose group due to massive abdominal hemorrhage caused by a nephroblastoma | Mortality (rats [2]; daily topical for 13 weeks, 0.7 mg/rat): None. Only one death took place in a male from the low dose group due to massive abdominal hemorrhage caused by a nephroblastoma | Mortality (rats [2]; daily topical for 13 weeks, 3.5 mg/rat): None. Only one death took place in a male from the low dose group due to massive abdominal hemorrhage caused by a nephroblastoma | Pathological evaluation of all body organs (macroscopic and microscopic changes) (rats [2]; daily topical for 13 weeks, all dosages): No drug-related macroscopic or microscopic changes | Hematology and clinical chemistry parameters (rats [2]; [5]): No dose related or sex related biologically meaningful treatment effects | Serious adverse effects, conclusion (rats [2]; [5]): did not cause any serious adverse effects at any of the doses tested | Treatment-related adverse effects (rats [2]; daily topical on the sex organs for 13 weeks, 7 µg, 0.7 mg and 3.5 mg/rat, SPF S.D. rats, 10 males + 10 females per group): No related adverse effects were detected throughout the study | Acute median oral lethal dose (rats [3]; oral by metal catheter, S.D. rats, 6 males + 6 females per group, 7 mg/rat = maximal practical dose): Under the conditions of this study, the acute median oral lethal dose of SNV was found to be greater the 7 mg/rat, which is the maximal practical dose | Mortality (rats [3]; [6]): None | Reactions (rats [3]; [6]): None | Osteoclast differentiation (osteoclast number and total area) [4]: comparable inhibitory effect
